Assay results from patent US9695155B2, “Herbicidal substituted pyrimidinyloxy benzene compounds” (E. I. DU PONT DE NEMOURS AND COMPANY, priority 2013, dated 2017).

Key:
[1] = tested on: large (Lg) crabgrass; experiment: Test C postemergence; assay type: in vivo, Digitaria sanguinalis; conditions: for Plant response rating (0 to 100), Crabgrass, Large: postemergence; for Plant response rating, Crabgrass, Large: Postemergence, scale 0 to 100 (0 no effect, 100 complete control)
Method in brief: (§1)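 Sown in loam/sand → sprayed pre-emergence; or grown to 1–4 leaves in peat mix → sprayed post-emergence. Same solvent/surfactant formulation both ways. Greenhouse 13–15 d. Score 0–100 visual.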

[2] = tested on: lambsquarters; experiment: Test C postemergence; assay type: in vivo, Chenopodium album; conditions: for Plant response rating (0 to 100), Lambsquarters: postemergence; for Plant response rating, Lambsquarters: Postemergence, scale 0 to 100 (0 no effect, 100 complete control)
Method in brief: as §1

[3] = tested on: galium; experiment: Test C postemergence; assay type: in vivo, Galium aparine; conditions: for Plant response rating (0 to 100), Galium: postemergence; for Plant response rating, Galium: Postemergence, scale 0 to 100 (0 no effect, 100 complete control)
Method in brief: as §1

[4] = tested on: yellow nutsedge; experiment: Test C postemergence; assay type: in vivo, Cyperus esculentus; conditions: for Plant response rating (0 to 100), Nutsedge, Yellow: postemergence; for Plant response rating, Nutsedge, Yellow: Postemergence, scale 0 to 100 (0 no effect, 100 complete control)
Method in brief: as §1

[5] = tested on: pigweed; experiment: Test A postemergence; assay type: in vivo, Amaranthus retroflexus
Method in brief: (§2)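 Visual injury scored 0–100 (100 = complete control) against untreated controls about 10 days after treatment in a greenhouse. Test chemicals, formulated with surfactant in non-phytotoxic solvent, were sprayed on soil preemergence or on 2-10 cm, one- to two-leaf plants postemergence.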

[6] = tested on: barnyardgrass; experiment: Test C postemergence; assay type: in vivo, Echinochloa crus-galli; conditions: for Plant response rating (0 to 100), Barnyardgrass: postemergence; for Plant response rating, Barnyardgrass: Postemergence, scale 0 to 100 (0 no effect, 100 complete control)
Method in brief: as §1

[7] = tested on: barnyardgrass; experiment: Test A preemergence; assay type: in vivo, Echinochloa crus-galli
Method in brief: as §2

[8] = tested on: ragweed; experiment: Test C postemergence; assay type: in vivo, Ambrosia elatior; conditions: for Plant response rating (0 to 100), Ragweed: postemergence; for Plant response rating, Ragweed: Postemergence, scale 0 to 100 (0 no effect, 100 complete control)
Method in brief: as §1

[9] = tested on: sedge, umbrella; experiment: Test B flooded paddy test; assay type: in vivo, Cyperus difformis; conditions: Flood, 250 g ai/ha; 0 to 100 scale where 0 is no effect and 100 is complete control
Method in brief: (§3)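 Greenhouse flooded-pot test: compounds dosed into 3 cm standing water over 2-leaf plants, flood held constant. Rated visually after 13–15 days on 0–100 (complete control = 100); a dash marks no test result.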

[10] = tested on: blackgrass; experiment: Test C postemergence; assay type: in vivo, Alopecurus myosuroides; conditions: for Plant response rating (0 to 100), Blackgrass: postemergence; for Plant response rating, Blackgrass: Postemergence, scale 0 to 100 (0 no effect, 100 complete control)
Method in brief: as §1

[11] = tested on: large (Lg) crabgrass; experiment: Test A postemergence; assay type: in vivo, Digitaria sanguinalis
Method in brief: as §2

[12] = tested on: soybean; experiment: Test C postemergence; assay type: in vivo, Glycine max; conditions: for Plant response rating (0 to 100), Soybean: postemergence; for Plant response rating, Soybean: Postemergence, scale 0 to 100 (0 no effect, 100 complete control)
Method in brief: as §1

[13] = tested on: wheat; experiment: Test A preemergence; assay type: in vivo, Triticum aestivum
Method in brief: as §2

[14] = tested on: rice; experiment: Test B flooded paddy test; assay type: in vivo, Oryza sativa; conditions: Flood, 250 g ai/ha; 0 to 100 scale where 0 is no effect and 100 is complete control
Method in brief: as §3

[15] = tested on: Italian ryegrass; experiment: Test C postemergence; assay type: in vivo, Lolium multiflorum; conditions: for Plant response rating (0 to 100), Ryegrass, Italian: postemergence; for Plant response rating, Ryegrass, Italian: Postemergence, scale 0 to 100 (0 no effect, 100 complete control)
Method in brief: as §1

[16] = 125 g ai/ha, 0 to 100 scale where 0 is no effect and 100 is complete control
[17] = 500 g ai/ha, 0 to 100 scale, 0 no effect, 100 complete control
[18] = 500 g ai/ha, 0 to 100 scale, 0 no effect, 100 complete control, approx. 10 days

N#Cc1cccc(Oc2ncc(Br)cn2)c1-n1cc(Br)cn1 [Compound 57]
Plant response rating (0 to 100), Crabgrass, Large ([1]; 125 g ai/ha): 10
Plant response rating (0 to 100), Crabgrass, Large ([1]; 250 g ai/ha): 30
Plant response rating, Crabgrass, Large ([1]; 31 g ai/ha, 13 to 15 days): 5
Plant response rating, Crabgrass, Large ([1]; 62 g ai/ha): 5
Plant response rating (0 to 100), Lambsquarters ([2]; 125 g ai/ha): 70
Plant response rating (0 to 100), Lambsquarters ([2]; 250 g ai/ha): 85
Plant response rating, Lambsquarters ([2]; 31 g ai/ha, 13 to 15 days): 70
Plant response rating, Lambsquarters ([2]; 62 g ai/ha): 70
Plant response rating (0 to 100), Galium ([3]; 125 g ai/ha): 70
Plant response rating (0 to 100), Galium ([3]; 250 g ai/ha): 95
Plant response rating, Galium ([3]; 31 g ai/ha, 13 to 15 days): 50
Plant response rating, Galium ([3]; 62 g ai/ha): 50
Plant response rating (0 to 100), Nutsedge, Yellow ([4]; 125 g ai/ha): 5
Plant response rating (0 to 100), Nutsedge, Yellow ([4]; 250 g ai/ha): 15
Plant response rating, Nutsedge, Yellow ([4]; 31 g ai/ha, 13 to 15 days): 5
Plant response rating, Nutsedge, Yellow ([4]; 62 g ai/ha): 5
Plant response rating, Pigweed [5, 16]: 100
Plant response rating, Pigweed [5, 17]: 100
Plant response rating (0 to 100), Barnyardgrass ([6]; 125 g ai/ha): 10
Plant response rating (0 to 100), Barnyardgrass ([6]; 250 g ai/ha): 15
Plant response rating, Barnyardgrass ([6]; 31 g ai/ha, 13 to 15 days): 5
Plant response rating, Barnyardgrass ([6]; 62 g ai/ha): 10
Plant response rating, Barnyardgrass [7, 16]: 60
Barnyardgrass plant response rating [7, 18]: 100
Plant response rating (0 to 100), Ragweed ([8]; 125 g ai/ha): 55
Plant response rating (0 to 100), Ragweed ([8]; 250 g ai/ha): 65
Plant response rating, Ragweed ([8]; 31 g ai/ha, 13 to 15 days): 35
Plant response rating, Ragweed ([8]; 62 g ai/ha): 40
Plant response rating, Sedge, Umbrella [9]: 80
Plant response rating (0 to 100), Blackgrass ([10]; 125 g ai/ha): 30
Plant response rating (0 to 100), Blackgrass ([10]; 250 g ai/ha): 30
Plant response rating, Blackgrass ([10]; 31 g ai/ha, 13 to 15 days): 10
Plant response rating, Blackgrass ([10]; 62 g ai/ha): 15
Plant response rating, Crabgrass, Large [11, 16]: 90
Plant response rating, Crabgrass, Large [11, 17]: 100
Plant response rating (0 to 100), Soybean ([12]; 125 g ai/ha): 95
Plant response rating (0 to 100), Soybean ([12]; 250 g ai/ha): 100
Plant response rating, Soybean ([12]; 31 g ai/ha, 13 to 15 days): 65
Plant response rating, Soybean ([12]; 62 g ai/ha): 85
Plant response rating, Wheat [13, 16]: 0
Wheat plant response rating [13, 18]: 50
Plant response rating, Rice [14]: 0
Plant response rating (0 to 100), Ryegrass, Italian ([15]; 125 g ai/ha): 10
Plant response rating (0 to 100), Ryegrass, Italian ([15]; 250 g ai/ha): 15
Plant response rating, Ryegrass, Italian ([15]; 31 g ai/ha, 13 to 15 days): 0
Plant response rating, Ryegrass, Italian ([15]; 62 g ai/ha): 5
